SMILES strings stand for the structures.

The first test deals with T1, NS3 (West Nile virus) (UniProt K4FQI5).
T1 sequence (whole entry): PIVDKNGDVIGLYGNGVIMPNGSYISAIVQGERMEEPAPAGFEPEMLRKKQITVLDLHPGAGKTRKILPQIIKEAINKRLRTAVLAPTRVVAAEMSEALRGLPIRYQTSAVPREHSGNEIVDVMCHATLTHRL
The experiment in a line: Functional biochemical assay to identify treatments for viral infectious disease that targets West Nile NS2B-NS3 protease. Utilizing a direct enzyme activity measurement method, reading the fluorescence intensity is used to characterize the relative potency of inhibitors as % inhibition. Synthetic construct has been made based on West Nile virus (strain NY-99) by Centre for Medicines Discovery, University of Oxford, and the assay has been performed by Weizmann Institute of Science.The protocol is publicly available: dx.doi.org/10.17504/protocols.io.q26g7yebkgwz/v3. Conditions: Concentration 50.0 uM, Number of replicates 2.0, Standard deviation 2.0262748168953313 %.
`N=C(N)NCCC[C@H](NC(=O)c1nccs1)C(=O)N[C@@H](CCCCN)C(=O)N[C@@H](C(N)=O)c1ccc(OCc2ccc(C(F)(F)F)cc2)cc1`: the inhibition (commonly the relative decrease from the control value, in per cent) is 80.2%.

The same test, now with this note: Concentration 50.0 uM, Number of replicates 2.0, Standard deviation 6.952329816266579 %.
For `O=C1c2c(O)ccc([N+](=O)[O-])c2C(=O)c2c([N+](=O)[O-])ccc(O)c21`, the inhibition turned out to be 4.86%.

Staying with this test, now noted: Concentration 100.0 uM, Number of replicates 2.0, Standard deviation 1.865400633304037 %.
For the compound `O=C1c2c(O)ccc([N+](=O)[O-])c2C(=O)c2c([N+](=O)[O-])ccc(O)c21`, the inhibition is 22.8%.

Still in this test, the particulars now being: Concentration 100.0 uM, Number of replicates 2.0, Standard deviation 12.945380917885936 %.
Consider `N=C(N)NCCC[C@H](NC(=O)c1nccs1)C(=O)N[C@@H](CCCCN)C(=O)N[C@@H](C(N)=O)c1ccc(OCc2ccc(C(F)(F)F)cc2)cc1`, for which the inhibition was 119%.

The next test addresses T1, NS3 (West Nile virus). Description: Functional biochemical assay to identify treatments for viral infectious disease that targets West Nile NS2B-NS3 protease. Utilizing a direct enzyme activity measurement method, reading the fluorescence intensity is used to characterize the relative potency of inhibitors as % inhibition. Synthetic construct has been made based on West Nile virus (strain NY-99) by Centre for Medicines Discovery, University of Oxford, and the assay has been performed by Stanford University.The protocol is publicly available: dx.doi.org/10.17504/protocols.io.ewov1dy37vr2/v1. Conditions: Concentration 50.0 uM, Number of replicates 1.0.
Take `Cc1c(C=O)c2ccccn2c1C(=O)c1ccncc1`: the inhibition was 63.6%.

On to `Cc1nc(C=O)c2ccccn12`, for which the inhibition was determined as 33.8%. Still for that read-out and setting: the same measure for `O=Cc1ccc(N2CCCCC2)cc1`: 36.7%.

Turning to `O=Cc1ccc(N2CCC(C(=O)O)CC2)o1`, the inhibition amounted to 65.4%. Take `Cc1c(C=O)c2ccccn2c1C#N`: the inhibition turned out to be 49.8%. Still for that read-out and setting: for `O=Cc1nc(-c2ccccc2Cl)n2ccccc12` the value was 41%. For `Cc1cc(NS(=O)(=O)c2ccc(S(=O)(=O)F)cc2)c[nH]c1=O`, the inhibition was 14.8%. For the compound `CC[C@H]1CO[C@H](C)CN1c1ccc(C=O)cn1`, the inhibition amounted to 61.8%.

For `O=Cc1ccc(N2CCCCCC2)cc1`, the inhibition is 57%.

Regarding `O=Cc1ccc(N2CCC(C(=O)O)CC2)cc1`, the inhibition turned out to be 69.5%. On to `Nc1ccc2ccc(B(O)O)cc2c1`, for which the inhibition was -5.6%. Still for that read-out and setting: for `CN(C)c1ccc(C=C(C#N)C(N)=O)cc1` the value was 38.2%.

Source of the values: ChEMBL document CHEMBL5606459, “ASAP - WNV NS2B-NS3 protease fluorescence single point” (2024).
